# pIC50: −log10 of the molar value.
# System: adhesion of Ramos cells to VCAM-1
# Test: Adhesion of Ramos cells to immobilized VCAM-1 (domains 1-3)
# Type: cell-based
# Details: Homo sapiens, Ramos
# Description: In Vitro Assay: Adhesion of Ramos Cells to Immobilized VCAM-1 (Domains 1-3) Preparation of VCAM-1 (Extracellular Domains 1-3)
# Complementary DNA (cDNA) encoding 7-domain form of VCAM-1 (GenBank accession #M60335) was obtained using Rapid-Screen™ cDNA library panels (OriGene Technologies, Inc) at Takara Gene Analysis Center (Shiga, Japan). The primers used were 5′-CCAAGGCAGAGTACGCAAAC-3′ (sense) and 5′-TGGCAGGTATTATTAAGGAG-3′ (antisense). PCR amplification of the 3-domain VCAM-1 cDNA was perform using Pfu DNA polymerase (Stratagene) with the following sets of primers: (U-VCAMd1-3) 5′-CCATATGGTACCTGATCAATTTAAAATCGAGACCACCCCAGAA-3′; (L-VCAMdl-3) 5-CCATATAGCAATCCTAGGTCCAGGGGAGATCTCAACAGTAAA-3′. PCR cycle was 94° C. for 45 sec, 55° C. for 45 sec, 72° C. for 2 min, repeating 15 cycles. After the purification of the PCR product, the fragment was digested with KpnI-AvrII. The digested fragment was ligated into pBluescript IISK(−) (Strategene), which was linearized by digesting with KpnI-XhoI. The ligation was followed by transformation to a Dam/Dcm methylase-free E. coli strain SCS110 (Strategene) to create the donor plasmid […]. To direct VCAM-1 molecule into the insect cell secretory pathway, the VCAM-1 coding sequence was fused to signal peptide sequence of honeybee melittin. The resulting melittin-VCAM fusion was placed in correct orientation to the baculovirus polyhedrin promoter. Baculovirus transfer vector containing first 3-domain form VCAM-1 (pH10) was constructed by ligation of 0.9 kb fragment from AvrII/Klenow/BclI digests of pH7 into SalI/Klenow/BamHI digests of pMelBacB (Invitrogen). Recombinant baculovirus was generated by using Bac-N-Blue™ Transfection kit (Invitrogen) according to the manufacture's instruction. The recombinant virus was amplified by infection to High-Five™ insect cells for 5-6 days, and virus titer was determined by plaque assay.
# High-Five™ insect cells were pelleted in a 225 ml conical tube by centrifugation at 1000 rpm for 5 min. After discarding the supernatant, the pellet was resuspended in 1.5×10^9 pfu (MOI=5) of high-titer virus solution, followed by incubation for 1.5 hours at room temperature. The cells were pelleted again and washed once in fresh Express Five™ serum free medium. The cells were pelleted again and finally, resuspended in 200 ml of fresh Express Five TM medium, transferred to a 1,000 ml shaker flask, and incubated in a shaker at 27° C., 130 rpm, for 48 hours before the culture supernatant was collected. The purification of 3-domain form of VCAM-1 from the culture supernatant was performed by one-step anion exchange chromatography. Protein concentration was determined by using Coomassie protein assay reagent (Pierce) according to the manufacture's instruction.
# Preparation of VCAM-1 Coated Microtiter Plates
# Recombinant human VCAM-1 (extracellular domains 1-3) was dissolved at 1.0 μg/ml in PBS. Each well of the microtiter plates (Nalge Nunc International, Fluoronunc Cert, 437958) was coated with 100 μl of substrate or for background control with buffer alone for 15 hours at 4 C. After discarding the substrate solution, the wells were blocked using 150 μl per well of block solution (Kirkegaard Perry Laboratories, 50-61-01) for 90 minutes. The plate was washed with wash buffer containing 24 mM Tris-HCl (pH 7.4), 137 mM NaCl, […] and 2 mM MnCl2 just before addition of the assay.
# In Vitro Assay using Ramos Cells
# Preparation of Fluorescence Labeled Ramos Cells:
# Ramos cells (American Type Culture Collection, Clone CRL-1596) were cultured in RPMI 1640 medium (Nikken Bio Medical Laboratory, CM1101) supplemented with 10% fetal bovine serum (Hyclone, A-1119-L), 100 U/ml penicilin (Gibco BRL, 15140-122) and 100 μg/ml streptomycin (Gibco BRL, 15140-122) in a humidified incubator at 37° C. with 5% CO2. […]
row,Structure (SMILES),pIC50
1,"Cc1ccccc1NC(=O)Nc1ccc(CC(=O)N(CCCN(C)C)CC(=O)Nc2ccc(C(=O)O)cc2)cc1 [Example 56, 4-[(N-[3-(dimethylamino)propyl]-N-{[4-({[(2-methylphenyl)amino]carbonyl}amino)phenyl]acetyl}glycyl)amino]benzoic acid]",> 6.30
2,"Cc1ccccc1NC(=O)Nc1ccc(CC(=O)N(CCCCN)CC(=O)Nc2ccc(C(=O)O)cc2)cc1 [Example 57, 4-[(N-(4-aminobutyl)-N-{[4-({[(2-methylphenyl)amino]carbonyl}amino)-phenyl]acetyl}glycyl)amino]benzoic acid]",> 6.30
3,"Cc1ccccc1NC(=O)Nc1ccc(CC(=O)N(CCCN2CCCC2)CC(=O)Nc2ccc(C(=O)O)cc2)cc1 [Example 58, 4-({N-{[4-({[(2-methylphenyl)amino]carbonyl}amino)phenyl]acetyl}-N-[3-(1-pyrrolidinyl)propyl]glycyl}amino)benzoic acid]",> 6.30
4,"Cc1ccccc1NC(=O)Nc1ccc(CC(=O)N(CCCN2CCN(c3ccccc3)CC2)CC(=O)Nc2ccc(C(=O)O)cc2)cc1 [Example 60, 4-({N-{[4-({[(2-methylphenyl)amino]carbonyl}amino)phenyl]acetyl}-N-[3-(4-phenyl-1-piperazinyl)propyl]glycyl}amino)benzoic acid]",> 6.30
5,"Cc1ccccc1NC(=O)Nc1ccc(CC(=O)N(CC(=O)Nc2ccc(C(=O)O)cc2)CC2CCCO2)cc1 (centres unmarked) [Example 61, 4-{[N-{[4-({[(2-methylphenyl)amino]carbonyl}amino)phenyl]acetyl}-N-(tetrahydro-2-furanylmethyl)glycyl]amino}benzoic acid]",> 6.30
6,"Cc1ccccc1NC(=O)Nc1ccc(CC(=O)N(CC(=O)Nc2ccc(C(=O)O)cc2)CC2CCNCC2)cc1 [Example 62, 4-{[N-{[4-({[(2-methylphenyl)amino]carbonyl}amino)phenyl]acetyl}-N-(4-piperidinylmethyl)glycyl]amino}benzoic acid]",> 6.30
7,"Cc1ccccc1NC(=O)Nc1ccc(CC(=O)N(CC(=O)Nc2ccc(C(=O)O)cc2)CC(C)(C)CN)cc1 [Example 63, 4-[(N-(3-amino-2,2-dimethylpropyl)-N-{[4-({[(2-methylphenyl)amino]-carbonyl}amino)phenyl]acetyl}glycyl)amino]benzoic acid]",> 6.30
8,"Cc1ccccc1NC(=O)Nc1ccc(CC(=O)N(CCCN2CCCC2=O)CC(=O)Nc2ccc(C(=O)O)cc2)cc1 [Example 66, 4-({N-{[4-({[(2-methylphenyl)amino]carbonyl}amino)phenyl]acetyl}-N-[3-(2-oxo-1-pyrrolidinyl)propyl]glycyl}amino)benzoic acid]",> 6.30
9,"COCCN(CC(=O)Nc1ccc(C(=O)O)cc1)C(=O)Cc1ccc(NC(=O)Nc2ccccc2C)cc1 [Example 67, 4-[(N-(2-methoxyethyl)-N-{[4-({[(2-methylphenyl)amino]carbonyl}amino)-phenyl]acetyl}glycyl)amino]benzoic acid]",> 6.30
10,"Cc1ccccc1NC(=O)Nc1ccc(CC(=O)N(CCCN2CCOCC2)CC(=O)Nc2ccc(C(=O)O)cc2)cc1 [Example 68, 4-({N-{[4-({[(2-methylphenyl)amino]carbonyl}amino)phenyl]acetyl}-N-[3-(4-morpholinyl)propyl]glycyl}amino)benzoic acid]",> 6.30
11,"Cc1ccccc1NC(=O)Nc1ccc(CC(=O)N(CC(=O)Nc2ccc(C(=O)O)cc2)Cc2cccnc2)cc1 [Example 69, 4-{[N-{[4-({[(2-methylphenyl)amino]carbonyl}amino)phenyl]acetyl}-N-(3-pyridinylmethyl)glycyl]amino}benzoic acid]",> 6.30
12,"Cc1ccccc1NC(=O)Nc1ccc(CC(=O)N(CC(=O)Nc2ccc(C(=O)O)cc2)Cc2ccccn2)cc1 [Example 70, 4-{[N-{[4-({[(2-methylphenyl)amino]carbonyl}amino)phenyl]acetyl}-N-(2-pyridinylmethyl)glycyl]amino}benzoic acid]",> 6.30

# Now from value to molecule:
row,pIC50,Structure (SMILES)
1,> 6.30,"Cc1ccccc1NC(=O)Nc1ccc(CC(=O)N[C@@H](CCN)C(=O)Nc2ccc(C(=O)O)cc2)cc1 [Example 40, 4-{[(2S)-4-amino-2-({[4-({[(2-methylphenyl)amino]carbonyl}amino)phenyl]acetyl}amino)butanoyl]amino}benzoic acid]"
2,> 6.30,"Cc1ccccc1NC(=O)Nc1ccc(CC(=O)N[C@@H](CCCN)C(=O)Nc2ccc(C(=O)O)cc2)cc1 [Example 41, 4-[(N^2-{[4-({[(2-methylphenyl)amino]carbonyl}amino)phenyl]acetyl}-L-ornithyl)amino]benzoic acid]"
3,> 6.30,"Cc1ccccc1NC(=O)Nc1ccc(CC(=O)N[C@@H](CC(=O)O)C(=O)Nc2ccc(C(=O)O)cc2)cc1 [Example 42, 4-[(N-{[4-({[(2-methylphenyl)amino]carbonyl}amino)phenyl]acetyl}-L-α-aspartyl)amino]benzoic acid]"
4,> 6.30,"Cc1ccccc1NC(=O)Nc1ccc(CC(=O)N[C@@H](Cc2c[nH]c3ccccc23)C(=O)Nc2ccc(C(=O)O)cc2)cc1 [Example 43, 4-[(N-{[4-({[(2-methylphenyl)amino]carbonyl}amino)phenyl]acetyl}-L-tryptophyl)amino]benzoic acid]"
5,> 6.30,"Cc1ccccc1NC(=O)Nc1ccc(CC(=O)NC(Cc2ccncc2)C(=O)Nc2ccc(C(=O)O)cc2)cc1 [Example 44, 4-{[N-{[4-(f{[(2-methylphenyl)amino]carbonyl}amino)phenyl]acetyl}-3-(4-pyridinyl)-L-alanyl]amino}benzoic acid]"
6,> 6.30,"Cc1ccccc1NC(=O)Nc1ccc(CC(=O)N[C@@H](Cc2cccnc2)C(=O)Nc2ccc(C(=O)O)cc2)cc1 [Example 45, 4-{[N-{[4-({[(2-methylphenyl)amino]carbonyl}amino)phenyl]acetyl}-3-(3-pyridinyl)-L-alanyl]amino}benzoic acid]"
7,> 6.30,"Cc1ccccc1NC(=O)Nc1ccc(CC(=O)N[C@@H](Cc2cscn2)C(=O)Nc2ccc(C(=O)O)cc2)cc1 [Example 46, 4-{[N-{[4-({[(2-methylphenyl)amino]carbonyl}amino)phenyl]acetyl}-3-(1,3-thiazol-4-yl)-L-alanyl]amino}benzoic acid]"
8,> 6.30,"Cc1ccccc1NC(=O)Nc1ccc(CC(=O)N[C@@H](Cc2cnc[nH]2)C(=O)Nc2ccc(C(=O)O)cc2)cc1 [Example 47, 4-[(N-{[4-({[(2-methylphenyl)amino]carbonyl}amino)phenyl]acetyl}-L-histidyl)amino]benzoic acid]"
9,> 6.30,"CCCN(CC(=O)Nc1ccc(C(=O)O)cc1)C(=O)Cc1ccc(NC(=O)Nc2ccccc2C)cc1 [Example 65, 4-[(N-{[4-({[(2-methylphenyl)amino]carbonyl}amino)phenyl]acetyl}-N-propylglycyl)amino]benzoic acid]"

# Same assay, conditions: Homo sapiens; observed IC50 value ranges; Table 4 does not say whether Ramos-VCAM-1 or Jurkat-VCAM-1; read-out: IC50
row,Structure (SMILES),pIC50
1,"CCN1CCCC1CN(CC(=O)Nc1ccc(C(=O)O)cc1)C(=O)Cc1ccc(NC(=O)Nc2ccccc2C)cc1 (centres unmarked) [Example 59, 4-[(N-[(1-ethyl-2-pyrrolidinyl)methyl]-N-{[4-({[(2-methylphenyl)amino]-carbonyl}amino)phenyl]acetyl}glycyl)amino]benzoic acid]",> 6.30
2,"Cc1ccccc1NC(=O)Nc1ccc(CC(=O)N(CCN2CCCC2)CC(=O)Nc2ccc(C(=O)O)cc2)cc1 [Example 64, 4-({N-{[4-({[(2-methylphenyl)amino]carbonyl}amino)phenyl]acetyl}-N-[2-(1-pyrrolidinyl)ethyl]glycyl}amino)benzoic acid]",> 6.30

# Source: US20050054582A1, “Para-amino benzoic acids as integrin antagonists” (priority 2001, published 2005)
